Experimental data reported in US10961242B2, “Compounds as autotaxin inhibitors and pharmaceutical compositions comprising the same” (LegoChem Biosciences, Inc., priority 2018, dated 2021).
Counter-ions that a name gives are not always drawn.

These compounds were tested against human ENPP2 (Homo sapiens (Human), UniProt Q13822) (assay: Inhibitory activity on human ENPP2 (FS-3 assay)). Settings: human ENPP2, FS-3 substrate, 30 min at 37° C.; read-out: IC50.
Assay type: biochemical
Description: Two-fold dilution of each test compound solution (10 μM, 100% dimethyl sulfoxide) is carried out on 96-well V bottom plate (Costar 3363). After ten-fold dilution of each the test compound solution (100% dimethyl sulfoxide) with deionized distilled water, 10 μL of the diluted each mpound solution (10% dimethyl sulfoxide) was aliquoted to a black flat bottom 96-well plate (Costar 3915).

Structure (SMILES) | IC50 [nM]
O=C(c1cnc(NCc2cccc(OC(F)(F)F)c2)nc1)N1CCC2(CC1)CC(CN1CCc3[nH]nnc3C1)=NO2 [Compound 8, 5-(3-{1H,4H,5H,6H,7H-[1,2,3]triazolo[4,5-c]pyridin-5-ylmethyl}-1-oxa-2,8-diazaspiro[4,5]dec-2-ene-8-carbonyl)-N-{[3-(trifluoromethoxy)phenyl]methyl}pyrimidin-2-amine] | 3.5
O=c1[nH]c2ccc(/C(CN3CCN(c4cnc(NC5Cc6ccccc6C5)nc4)CC3)=N\O)cc2o1 [Compound 29, 6-[(1E)-2-(4-{2-[(2,3-dihydro-1H-inden-2-yl)amino]pyrimidin-5-yl}piperazin-1-yl)-1-(hydroxyimino)ethyl]-2,3-dihydro-1,3-benzoxazol-2-one] | 3.9
O=C(NCC(=O)N1CCc2[nH]nnc2C1)c1cnc(NCc2cccc(OC(F)(F)F)c2)nc1 [Compound 3, N-(2-oxo-2-{1H,4H,5H,6H,7H-[1,2,3]triazolo[4,5-c]pyridin-5-yl}ethyl)-2-({[3-(trifluoromethoxy)phenyl]methyl}amino)pyrimidine-5-carboxamide] | 14.3
O=C(CN1CCc2[nH]nnc2C1)N1CCN(c2cnc(NC3Cc4ccccc4C3)nc2)CC1 [Compound 17, 1-(4-{2-[(2,3-dihydro-1H-inden-2-yl)amino]pyrimidin-5-yl}piperazin-1-yl)-2-{1H,4H,5H,6H,7H-[1,2,3]triazolo[4,5-c]pyridin-5-yl}ethan-1-one] | 3.4
O=C(CCN1CCN(c2cnc(NC3Cc4ccccc4C3)nc2)CC1)N1CCc2[nH]nnc2C1 [Compound 23] | 6.8
O=C(NCCC(=O)N1CCc2[nH]nnc2C1)c1cnc(NC2Cc3ccccc3C2)nc1 [Compound 1, 2-[(2,3-dihydro-1H-inden-2-yl)amino]-N-(3-oxo-3-{1H,4H,5H,6H,7H-[1,2,3]triazolo[4,5-c]pyridin-5-yl}propyl)pyrimidine-5-carboxamide] | 3.3
O=c1[nH]c2ccc(C3=NOC(CN4CCN(c5cnc(NC6Cc7ccccc7C6)nc5)CC4)C3)cc2o1 (centres unmarked) [Compound 31, 6-{5-[(4-{2-[(2,3-dihydro-1H-inden-2-yl)amino]pyrimidin-5-yl}piperazin-1-yl)methyl]-4,5-dihydro-1,2-oxazol-3-yl}-2,3-dihydro-1,3-benzoxazol-2-one] | 11.8
O=C(CN1CCN(c2cnc(NCc3cccc(OC(F)(F)F)c3)nc2)CC1)N1CCc2[nH]nnc2C1 [Compound 21, 1-{1H,4H,5H,6H,7H-[1,2,3]triazolo[4,5-c]pyridin-5-yl}-2-{4-[2-({[3-(trifluoromethoxy)phenyl]methyl}amino)pyrimidin-5-yl]piperazin-1-yl}ethan-1-one] | 4.1
CC(NC(=O)c1cnc(NCc2cccc(OC(F)(F)F)c2)nc1)C(=O)N1CCc2[nH]nnc2C1 (centres unmarked) [Compound 4, N-(1-oxo-1-{1H,4H,5H,6H,7H-[1,2,3]triazolo[4,5-c]pyridin-5-yl}propan-2-yl)-2-({[3-(trifluoromethoxy)phenyl]methyl}amino)pyrimidine-5-carboxamide] | 18.9
O=C(Cc1nnc(-c2cnc(NC3Cc4ccccc4C3)nc2)o1)N1CCc2[nH]nnc2C1 [Compound 33, 2-(5-(2-((2,3-dihydro-1H-inden-2-yl)amino)pyrimidin-5-yl)-1,3,4-oxadiazol-2-yl)-1-(1,4,6,7-tetrahydro-5H-[1,2,3]triazolo[4,5-c]pyridin-5-yl) ethan-1-one] | 2.4
O=C(Cc1nnc(-c2cnc(NC3Cc4ccccc4C3)nc2)o1)N1CCc2[nH]c(=O)ccc2C1 [Compound 39, 6-[2-(5-{2-[(2,3-dihydro-1H-inden-2-yl)amino]pyrimidin-5-yl}-1,3,4-oxadiazol-2-yl)acetyl]-1,2,5,6,7,8-hexahydro-1,6-naphthyridin-2-one] | 10.6
O=C(CN1CCN(c2cnc(NC3Cc4ccccc4C3)nc2)CC1)c1ccc2[nH]c(=O)oc2c1 [Compound 28, 6-[2-(4-{2-[(2,3-dihydro-1H-inden-2-yl)amino]pyrimidin-5-yl}piperazin-1-yl)acetyl]-2,3-dihydro-1,3-benzoxazol-2-one] | 3.1
O=C(Cc1nnc(-c2ccc(NC3Cc4ccccc4C3)nc2)o1)N1CCc2[nH]nnc2C1 [Compound 36, 2-(5-{6-[(2,3-dihydro-1H-inden-2-yl)amino]pyridin-3-yl}-1,3,4-oxadiazol-2-yl)-1-{1H,4H,5H,6H,7H-[1,2,3]triazolo[4,5-c]pyridin-5-yl}ethan-1-one] | 2.9
O=C(Cc1nnc(-c2cnc(NC3Cc4ccccc4C3)nc2)o1)N1CCc2nc[nH]c2C1 [Compound 38, 2-(5-{2-[(2,3-dihydro-1H-inden-2-yl)amino]pyrimidin-5-yl}-1,3,4-oxadiazol-2-yl)-1-{3H,4H,5H,6H,7H-imidazo[4,5-c]pyridin-5-yl}ethan-1-one] | 4
O=C(CN1CCc2[nH]nnc2C1)N1CCN(c2cnc(NCc3cccc(OC(F)(F)F)c3)nc2)CC1 [Compound 18] | 3.6
O=C1O[C@@H](CN2CCN(c3cnc(NC4Cc5ccccc5C4)nc3)CC2)CN1c1ccc2[nH]c(=O)oc2c1 [Compound 26, 6-[(5S)-5-[(4-{2-[(2,3-dihydro-1H-inden-2-yl)amino]pyrimidin-5-yl}piperazin-1-yl)methyl]-2-oxo-1,3-oxazolidin-3-yl]-2,3-dihydro-1,3-benzoxazol-2-one] | 13.1
O=C(CCc1ccc2[nH]c(=O)oc2c1)N1CCC(c2cnc(NC3Cc4ccccc4C3)nc2)CC1 [Compound 16, 6-[3-(4-{2-[(2,3-dihydro-1H-inden-2-yl)amino]pyrimidin-5-yl}piperidin-1-yl)-3-oxopropyl]-2,3-dihydro-1,3-benzoxazol-2-one] | 2.2

Next, values leading:

IC50 [nM] | Structure (SMILES)
2.3 | O=C(Cn1cc(-c2cnc(NC3Cc4ccccc4C3)nc2)c(CN2CCN(CC(F)F)CC2)n1)N1CCc2[nH]nnc2C1 [Compound 92, 2-(3-{[4-(2,2-difluoroethyl)piperazin-1-yl]methyl}-4-{2-[(2,3-dihydro-1H-inden-2-yl)amino]pyrimidin-5-yl}-1H-pyrazol-1-yl)-1-{1H,4H,5H,6H,7H-[1,2,3]triazolo[4,5-c]pyridin-5-yl}ethan-1-one]
2.1 | O=C(Cn1cc(-c2cnc(NC3Cc4ccccc4C3)nc2)c(CCN2CCOCC2)n1)N1CCc2[nH]nnc2C1 [Compound 93, 2-(4-{2-[(2,3-dihydro-1H-inden-2-yl)amino]pyrimidin-5-yl}-3-[2-(morpholin-4-yl)ethyl]-1H-pyrazol-1-yl)-1-{1H,4H,5H,6H,7H-[1,2,3]triazolo[4,5-c]pyridin-5-yl}ethan-1-one]
2.6 | O=C(Cn1cc(-c2cnc(NC3Cc4ccccc4C3)nc2)c(CN2CCCNCC2)n1)N1CCc2[nH]nnc2C1 [Compound 90, 2-[3-(1,4-diazepan-1-ylmethyl)-4-{2-[(2,3-dihydro-1H-inden-2-yl)amino]pyrimidin-5-yl}-1H-pyrazol-1-yl]-1-{1H,4H,5H,6H,7H-[1,2,3]triazolo[4,5-c]pyridin-5-yl}ethan-1-one. HCl]
11.2 | Nc1nc2c(s1)CCN(C(=O)Cc1nnc(-c3cnc(NC4Cc5ccccc5C4)nc3)o1)C2 [Compound 43, 1-{2-amino-4H,5H,6H,7H-[1,3]thiazolo[4,5-c]pyridin-5-yl}-2-(5-{2-[(2,3-dihydro-1H-inden-2-yl)amino]pyrimidin-5-yl}-1,3,4-oxadiazol-2-yl)ethan-1-one]
8.1 | O=C(Cc1nnc(-c2cnc(NC3Cc4ccccc4C3)nc2)o1)N1CCc2[nH]ncc2C1 [Compound 42, 2-(5-{2-[(2,3-dihydro-1H-inden-2-yl)amino]pyrimidin-5-yl}-1,3,4-oxadiazol-2-yl)-1-{1H,4H,5H,6H,7H-pyrazolo[4,3-c]pyridin-5-yl}ethan-1-one]
2.3 | CCc1nn(CC(=O)N2CCN(C(=O)CO)CC2)cc1-c1cnc(NC2Cc3ccccc3C2)nc1 [Compound 94, 1-{4-[2-(4-{2-[(2,3-dihydro-1H-inden-2-yl)amino]pyrimidin-5-yl}-3-ethyl-1H-pyrazol-1-yl)acetyl]piperazin-1-yl}-2-hydroxyethan-1-one]
10.1 | O=C(Cc1nnc(-c2cnc(NC3Cc4ccccc4C3)nc2)o1)N1CCc2[nH]c(=O)[nH]c2C1 [Compound 40, 5-[2-(5-{2-[(2,3-dihydro-1H-inden-2-yl)amino]pyrimidin-5-yl}-1,3,4-oxadiazol-2-yl)acetyl]-1H,2H,3H,4H,5H,6H,7H-imidazo[4,5-c]pyridin-2-one]
2.4 | CCN1CCN(Cc2nn(CC(=O)N3CCc4[nH]nnc4C3)cc2-c2cnc(NC3Cc4ccccc4C3)nc2)CC1 [Compound 91, 2-(4-{2-[(2,3-dihydro-1H-inden-2-yl)amino]pyrimidin-5-yl}-3-[(4-ethylpiperazin-1-yl)methyl]-1H-pyrazol-1-yl)-1-{1H,4H,5H,6H,7H-[1,2,3]triazolo[4,5-c]pyridin-5-yl}ethan-1-one]
16.6 | O=C(Cc1nnc(-c2cnc(NC3Cc4ccccc4C3)nc2)o1)N1CCc2cn[nH]c2C1 [Compound 44, 2-(5-{2-[(2,3-dihydro-1H-inden-2-yl)amino]pyrimidin-5-yl}-1,3,4-oxadiazol-2-yl)-1-{1H,4H,5H,6H,7H-pyrazolo[3,4-c]pyridin-6-yl}ethan-1-one]
